Source: patent US9850277B2, “Therapeutically active compositions and their methods of use” (AGIOS PHARMACEUTICALS, INC, priority 2013, dated 2017)

The molecules below were run against IDH1 R132C (Homo sapiens (Human), UniProt O75874, R132C) (assay: In vitro NADPH depletion assay for IDH1m R132C inhibitors). Conditions: IDH1 R132C enzyme, read-out: IDH R132C IC50.
Assay type: biochemical
Description: (§1) A test compound is prepared as 10 mM stock in DMSO and diluted to 50× final concentration in DMSO, for a 50 μl reaction mixture. IDH enzyme activity converting alpha-ketoglutarate to 2-hydroxyglutaric acid is measured using a NADPH depletion assay. In the assay the remaining cofactor is measured at the end of the reaction with the addition of a catalytic excess of diaphorase and resazurin, to generate a fluorescent signal in proportion to the amount of NADPH remaining. […] The reaction is started with the addition of 10 μl of Substrate Mix ([…], 5 mM alpha-ketoglutarate, in Assay Buffer) and the mixture is incubated for 90 minutes at room temperature.
The concentration of NADPH and alpha-ketoglutarate in the Substrate Buffer is 20 μM and 1 mM, respectively.

Sequence of IDH1 R132C (O75874 whole entry R132C): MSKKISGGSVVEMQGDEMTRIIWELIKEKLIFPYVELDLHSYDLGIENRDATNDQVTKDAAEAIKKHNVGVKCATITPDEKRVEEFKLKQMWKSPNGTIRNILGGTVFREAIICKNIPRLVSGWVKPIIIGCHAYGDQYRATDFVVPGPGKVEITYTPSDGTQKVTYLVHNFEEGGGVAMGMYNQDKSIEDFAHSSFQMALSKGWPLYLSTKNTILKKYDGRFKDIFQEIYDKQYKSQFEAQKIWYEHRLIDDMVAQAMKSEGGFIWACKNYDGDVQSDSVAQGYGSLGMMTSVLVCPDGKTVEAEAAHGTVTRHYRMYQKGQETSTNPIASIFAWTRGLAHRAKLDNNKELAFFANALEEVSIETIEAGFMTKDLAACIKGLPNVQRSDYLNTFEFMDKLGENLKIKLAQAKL

Molecule | IC50
O=C(NC1CC(F)(F)C1)[C@H](c1ccccc1Cl)N(C(=O)[C@@H]1CCC(=O)N1c1cccc(F)n1)c1cccc(F)c1 [Compound 11] | 100 to 500 nM
O=C(NC1CC(F)(F)C1)[C@H](c1ccccc1Cl)N(C(=O)[C@@H]1CCC(=O)N1c1nccc2ccccc12)c1cccc(F)c1 [Compound 16] | 100 to 500 nM

These molecules were tested against IDH1 R132H (Homo sapiens (Human), UniProt O75874, R132H) (assay: In vitro NADPH depletion assay for IDH1m R132H inhibitors). Conditions: IDH1 R132H enzyme, read-out: IDH R132H IC50.
Sequence of IDH1 R132H (O75874 whole entry R132H): as the sequence (O75874 whole entry R132C) above, with C132H counted along it
Assay type: biochemical
Description: as §1

Molecule | IC50
O=C(NC1CC(F)(F)C1)C(c1ccccc1Cl)N(C(=O)[C@@H]1CCC(=O)N1c1cccnc1)c1cccc(F)c1 (stereo partly shown) [Compound 10] | 100 to 500 nM
O=C(NC1CC(F)(F)C1)[C@H](c1ccccc1Cl)N(C(=O)[C@@H]1CCC(=O)N1c1cccc(F)n1)c1cccc(F)c1 [Compound 11] | 100 to 500 nM
O=C(NC1CC(F)(F)C1)[C@H](c1ccccc1Cl)N(C(=O)[C@@H]1CCC(=O)N1c1nccc2ccccc12)c1cccc(F)c1 [Compound 16] | 100 to 500 nM
COc1cccnc1N1C(=O)CC[C@H]1C(=O)N(c1cccc(F)c1)[C@H](C(=O)NC1CC(F)(F)C1)c1ccccc1Cl [Compound 17] | 100 to 500 nM

Each molecule was assayed on U87MG cells (assay: Cellular assay, inhibition of 2-HG production in U87MG cells). Conditions: 48 hours.
Assay type: cell-based
Description: Cells (HT1080 or U87MG) are grown in T125 flasks in DMEM containing 10% FBS, 1× penicillin/streptomycin and 500 ug/mL G418 (present in U87MG cells only). They are harvested by trypsin and seeded into 96 well white bottom plates at a density of 5000 cell/well in 100 ul/well in DMEM with 10% FBS. […] Cells are incubated overnight at 37° C. in 5% CO2. The next day test compounds are made up at 2× the final concentration and 100 ul are added to each cell well. The final concentration of DMSO is 0.2% and the DMSO control wells are plated in row G. The plates are then placed in the incubator for 48 hours. […] The cell plate is placed back in the incubator for another 24 hours. At 72 hours post compound addition, 10 mL/plate of Promega Cell Titer Glo reagent is thawed and mixed. The cell plate is removed from the incubator and allowed to equilibrate to room temperature. Then 100 ul of Promega Cell Titer Glo reagent is added to each well of media. The cell plate is then placed on an orbital shaker for 10 minutes and then allowed to sit at room temperature for 20 minutes. The plate is then read for luminescence with an integration time of 500 ms.

Molecule | IC50
N#Cc1cccc(N2C(=O)OC[C@H]2C(=O)N(c2cccc3cn[nH]c23)[C@H](C(=O)NC2CCC(F)(F)CC2)c2ccccc2Cl)c1 [Compound 142, (S)—N—((S)-1-(2-Chlorophenyl)-2-(4,4-difluorocyclohexylamino)-2-oxoethyl)-3-(3-cyanophenyl)-N-(1H-indazol-7-yl)-2-oxooxazolidine-4-carboxamide] | < 100 nM
(S)-1-(4-Cyanopyridin-2-yl)-N—((S)-1-(2,4-dichlorophenyl)-2-((3,3-difluorocyclobutyl)-amino)-2-oxoethyl)-N-(3,5-difluorophenyl)-5-oxopyrrolidine-2-carboxamide [Compound 196] | < 100 nM
(S)-tert-butyl 3-(((S)-1-(2-chlorophenyl)-2-((3,3-difluorocyclobutyl) amino)-2-oxoethyl)(3,5-difluorophenyl)carbamoyl)-5-oxopiperazine-1-carboxylate [Compound 97] | < 100 nM
(S)—N—((S)-1-(2-Chlorophenyl)-2-(3,3-difluorocyclobutylamino)-2-oxoethyl)-1-(3-cyano-phenyl)-N-(1H-indazol-7-yl)-5-oxopyrrolidine-2-carboxamide [Compound 186] | < 100 nM
(S)—N—((S)-1-(2-Chlorophenyl)-2-(3,3-difluorocyclobutylamino)-2-oxoethyl)-N-(3-cyano-5-fluorophenyl)-3-(3-cyanophenyl)-2-oxooxazolidine-4-carboxamide [Compound 134] | < 100 nM
(S)—N—((S)-1-(2-Chlorophenyl)-2-((3,3-difluorocyclobutyl)amino)-2-oxoethyl)-1-(4-cyanopyridin-2-yl)-N-(1H-indazol-6-yl)-5-oxopyrrolidine-2-carboxamide [Compound 205] | < 100 nM
(S)—N—((S)-1-(2-Chlorophenyl)-2-((4,4-difluorocyclohexyl)amino)-2-oxoethyl)-1-(4-cyanopyridin-2-yl)-N-(1H-indazol-6-yl)-5-oxopyrrolidine-2-carboxamide [Compound 136] | < 100 nM
